Experimental data reported in publication PMC10056636, “3-Amino-Substituted Analogues of Fusidic Acid as Membrane-Active Antibacterial Compounds” (Membranes, 2023).
Values after ≈ are worked out from the molar mass of the structure shown. Values joined by “and” are separate entries in the source; they are usually repeats but may differ in a detail not shown here. Identical values can stand only once. Like-named read-outs stand apart in the source and are kept apart here.

Experiments:
[1] = in vitro; type: cell-based, human; conditions: human, CC50
Method: (§1) HEK293 cells were counted manually in a Neubauer hemocytometer and then plated in 384-well plates containing the test compounds to give a density of 5000 cells per well in a final volume of 50 µL. DMEM supplemented with 10% FBS was used as the growth medium, and the cells were incubated together with the compounds for 20 h at 37 °C in 5% CO2.
(§2) The cytotoxicity (or cell viability) was measured by fluorescence, ex: 560/10 nm, em: 590/10 nm (F560/590), after addition of 5 µL of 25 µg/mL resazurin (2.3 µg/mL final concentration) and after incubation for further 3 h at 37 °C in 5% CO2. The fluorescence intensity was measured using a Tecan M1000 Pro monochromator plate reader with automatic gain control. The CC50 (50% cytotoxicity concentration) values were calculated by curve fitting of inhibition vs. log(concentration) using a sigmoidal dose–response function, with variable fitting values for bottom, top, and slope. In addition, the maximal percentage of cytotoxicity is reported as DMax, indicating any compounds with partial cytotoxicity. The curve fitting was implemented using Pipeline Pilot’s dose–response component. The results were similar to those obtained by other curve-fitting tools, such as GraphPad’s Prism and IDBS’s XlFit. Any value with > indicated samples with no activity (low DMax value) or samples with CC50 values above the maximum tested concentration (higher DMax value).
(§3) In addition, samples were flagged as partially cytotoxic if DMax ≥ 50%, even for CC50 > the maximum tested concentration.
(§4) Tamoxifen served as a positive cytotoxicity standard. Melittin was used as a positive hemolytic standard.

[2] = test system: human embryonic kidney cell line HEK293 (ATCC CRL-1573); assay: in vitro; type: cell-based; conditions: human, 20 h
Method: as §1, §2, §3, §4

[3] = test system: Pseudomonas aeruginosa (ATCC 27853); assay: Antibacterial whole-cell growth inhibition (MIC, CO-ADD); type: cell-based; conditions: P. aeruginosa, two replicates per cell
Method: (§5) Antibacterial screening was carried out by the serial dilution method. All bacteria were cultured in the cation-adjusted Mueller Hinton broth (CAMHB) at 37 °C overnight. A sample of each culture was then diluted 40-fold in fresh broth and incubated at 37 °C for 1.5–3 h. The resultant mid-log phase cultures were diluted (CFU/mL measured by OD600) and then added into each well containing a test compound, giving a cell density of 5 × 10^5 CFU/mL and a total volume of 50 µL. All the plates were covered and incubated at 37 °C for 18 h without shaking.
(§6) Inhibition of bacterial growth was determined by measuring the absorbance at 600 nm (OD600) with a Tecan M1000 Pro monochromator plate reader. […]

[4] = test system: Staphylococcus aureus (ATCC 43300) (MRSA); assay: as above; type: cell-based; conditions: S. aureus (MRSA) ATCC 43300, inhibition ≥80%, two replicates (n = 2)
Method: as §5, §6

[5] = test system: Acinetobacter baumannii (ATCC 19606); assay: as above; type: cell-based; conditions: A. baumannii, two replicates per cell
Method: as §5, §6

[6] = test system: Escherichia coli (ATCC 25922); assay: as above; type: cell-based; conditions: E. coli, two replicates per cell
Method: as §5, §6

[7] = Measurement of the membrane boundary potential (K+-nonactin conductance); conditions: 0.1 M KCl, pH 7.4, 50 mV
Method: Measurement of the membrane boundary potential. Virtually solvent-free planar lipid bilayers were made of DPhPC or DPhPG as described above. After the membrane was completely formed and stabilized and its stability was assessed by applying voltages in a range from −200 to 200 mV with a 50 mV step for 5–10 min, stock solutions of nonactin A (7 μg/mL in ethanol) were added to the bathing solution (0.1 M KCl, 5 mM HEPES, pH 7.4) in both chamber compartments to obtain a final concentration ranging from 0.1 to 1 μM.
Test derivatives (4, 20, 22) as 10 mg/mL solutions in ethanol were added to both compartments in a concentration range from 5 µg/mL to Cbr in increments of 25 µg/mL.
The conductance of the bilayers was determined by measuring the membrane conductance (G) at a constant transmembrane voltage of 50 mV. In the subsequent calculations, the membrane conductance was assumed to be related to the membrane boundary potential (φb), the potential drop between the aqueous solution and the membrane hydrophobic core, by the Boltzmann distribution (1) Gm/Gm0=exp(eΔφb/kT) where Gm and Gm^0 are the steady-state membrane conductances induced by K^+-nonactin in the presence and absence of test compounds, respectively; e, k, and T have their usual meanings.
The changes in the membrane boundary potential for the defined experimental conditions were averaged from 4 bilayers and presented as mean ± standard deviation (p ≤ 0.05).

[8] = Hemolysis assay; type: cell-based, human; conditions: human, Dmax (maximal percentage of hemolysis)
Method: (§7) Human whole blood was washed three times with 3 volumes of 0.9% NaCl and then resuspended in the same medium to a concentration of 0.5 × 10^8 cells/mL, as determined by manual cell count in a Neubauer hemocytometer. The washed cells were then added to 384-well plates containing the test compounds to a final volume of 50 µL. After shaking on a plate shaker for 10 min, the plates were incubated for 1 h at 37 °C. After incubation, the plates were centrifuged at 1000× g for 10 min to pellet the cells and debris; 25 µL of the supernatant was then transferred to a polystyrene 384-well assay plate.
(§8) Hemolysis was monitored by measuring the supernatant absorbance at […] (OD405). The absorbance was measured using a Tecan M1000 Pro monochromator plate reader. HC10 and HC50 (10% and 50% hemolysis concentrations, respectively) were calculated by curve fitting of inhibition vs. log(concentration) using a sigmoidal dose–response function with variable fitting values for top, bottom, and slope. In addition, the maximal percentage of hemolysis is reported as DMax, indicating any compounds with partial hemolysis. The curve fitting was implemented using Pipeline Pilot’s dose–response component. […] Any value with > indicated sample with no activity (low DMax value) or samples with HC10 values above the maximum tested concentration (higher DMax value).
(§9) In addition, samples were flagged as partially hemolytic if DMax ≥ 50%, even for HC10 > the maximum tested concentration. […]

[9] = test system: human red blood cells; assay: Hemolysis assay; type: cell-based; conditions: human, 1 h
Method: as §7, §8, §9

[10] = test system: Candida albicans (ATCC 90028); assay: Antifungal growth inhibition (MIC, CO-ADD); type: cell-based; conditions: C. albicans, inhibition ≥80%, two replicates per cell
[11] = Pseudomonas aeruginosa, ATCC27853, read-out: MIC
[12] = Acinetobacter baumannii, ATCC19606, read-out: MIC
[13] = Escherichia coli, ATCC25922, read-out: MIC
[14] = Candida albicans, ATCC90028, read-out: MIC

SMILES | CC50 at 20 h [1] [µg/mL] | CC50 [2] [µg/mL] | MIC [3] | MIC [3, 11] [µg/mL] | MIC ([4]; Staphylococcus aureus, read-out: MIC) [µg/mL] | MIC [5] [µg/mL] | MIC [5, 12] [µg/mL] | MIC [6] [µg/mL] | MIC [6, 13] [µg/mL] | −Δφb(max) (maximum decrease in the membrane boundary potential) ([7]; DPhPC) [mV] | −Δφb(max) (maximum decrease in the membrane boundary potential) ([7]; DPhPG) [mV] | hemolysis at 1 h [8] [%] | Dmax (maximal percentage of hemolysis) [9] [%] | HC50 [9] | MIC [10] [µg/mL] | MIC [10, 14] [µg/mL] | MIC [4]
COC(=O)/C(CCC=C(C)C)=C1\[C@@H](OC(C)=O)C[C@@]2(C)[C@@H]1C[C@@H](O)[C@@H]1[C@@]3(C)CC[C@H](NCCCNCCCCNCCCN)[C@@H](C)C3CC[C@@]12C (stereo partly drawn) [Compound 22, Methyl (2Z)-2-[(3β,4α,8α,11α,14β,16β)-16-(acetyloxy)-3-{[3-({4-[(3-aminopropyl)amino]butyl}amino)propyl]amino}-11-hydroxy-4,8,10,14-tetramethylgonan-17-ylidene]-6-methylhept-5-enoate] | 18.8 (≈ 26.3 µM) | 18.1 (≈ 25.3 µM) | 32 µg/mL (≈ 44.8 µM) | 32 (≈ 44.8 µM) | 2 (≈ 2.8 µM) | 32 (≈ 44.8 µM) | 32 (≈ 44.8 µM) | 32 (≈ 44.8 µM) | 32 (≈ 44.8 µM) | 40 ± 8 | 23 ± 8 | 15.1 | 11.3 | >32 >32 µg/mL | 32 (≈ 44.8 µM) | 32 (≈ 44.8 µM) | –
COC(=O)/C(CCC=C(C)C)=C1\[C@@H](OC(C)=O)C[C@@]2(C)[C@@H]1C[C@@H](O)[C@@H]1[C@@]3(C)CC[C@H](NCCCNCCCCN)[C@@H](C)C3CC[C@@]12C (stereo partly drawn) [Compound 20, Methyl (2Z)-2-[(3β,4α,8α,11α,14β,16β)-16-(acetyloxy)-3-({3-[(4aminobutyl)amino]propyl}amino)-11-hydroxy-4,8,10,14-tetramethylgonan-17-ylidene]-6-methylhept-5-enoate] | 15.4 (≈ 23.4 µM) | 14.9 (≈ 22.6 µM) | >32 >32 µg/mL | > 32 | – | 32 (≈ 48.6 µM) | 32 (≈ 48.6 µM) | 32 (≈ 48.6 µM) | 32 (≈ 48.6 µM) | 29 ± 7 | 11 ± 4 | 61.8 | 60.5 | – | 32 (≈ 48.6 µM) | 32 (≈ 48.6 µM) | 4.0 µg/mL and 8.0 µg/mL
